In brackets after ≈: the same amount, converted by molar mass. Entries after “also recorded” stand apart in the source; their conditions may differ. Like-named read-outs stand apart in the source and are kept apart here.
What was measured:
[1] = test system: Human liver cancer HepG2 cell; assay: In-vitro inhibition of tumor cell proliferation (3H-TdR, 72 h), normal oxygen and hypoxic; assay type: cell-based; settings: HepG2, 72 h
Method: (§1) Take tumor cells in the logarithmic growth phase, add 0.25% pancreatin for digestion for 3 min, use RPMI-1640 containing 10% calf serum for suspension culture of the cells, count the number, adjust cell concentration to 1×10^5 cells/mL, inoculate to a Top-count dedicated 96-well cell culture plate at 100 μL/well, and incubate at 37° C. and 5% CO2 for 24 h; divide the cells into experimental groups and control groups, and add a target compound solution (0.001 μg/mL, 0.01 μg/mL, 0.1 μg/mL, 1 μg/mL, 10 μg/mL) to the experimental groups, wherein each concentration corresponded to four wells, and the volume of each well was made up to 200 μL; after adding samples, continue to culture for 72 h for each group (for hypoxic groups, continue to culture for 72 h at 5% CO2, 95% N2), add ^3H-TdR 3×10^5Bq to each group before culture ended, and measure the CPM (count per minute) value of each well with Top-count; and calculate the median inhibition concentration (IC50) of drugs in each experimental group on cell proliferation.

[2] = test system: Human lung adenocarcinoma cell A549; assay: as above; assay type: cell-based; settings: A549, 72 h
Method: as §1

[3] = test system: Human pancreatic adenocarcinoma cell BxPC-3 cell; assay: as above; assay type: cell-based; parameters: Median inhibition concentration IC50 normal oxygen (air) / Median inhibition concentration IC50 hypoxic (nitrogen): unit not given here; settings: for IC50: Homo sapiens
[4] = test system: subcutaneous transplantation tumor of human BxPC-3; assay: Growth inhibition of subcutaneous transplantation tumor of human BxPC-3 in nude mice, with animal weight; assay type: in vivo; settings: high-dose group, 4 times of the effective dose (0.4 mmol/kg); FIG. 3
Method: Take BxPC-3 human pancreatic cancer cells in the logarithmic growth phase, inoculate subcutaneously on the back of nude mice at a concentration of 5×10^6 cells·0.2 mL^−1·mouse^−1, three weeks later, after the long diameters of the transplanted tumors in nude mice were all ≥5 mm, calculate the similar volume of tumor bodies based on the long diameter and short diameter of the transplanted tumors. Nude mice were divided into 5 groups by a random block design and allocation method according to the tumor volume.
Administration scheme: 50 model animals were randomly divided into a negative control group, a low-dose group (compound 001, 0.1 mmol/kg), a high-dose group (compound 001, 0.4 mmol/kg), a gemcitabine hydrochloride group (0.2 mmol/kg), and a combined administration group (compound 001, 0.1 mmol/kg+ gemcitabine hydrochloride, 0.1 mmol/kg), intraperitoneally injected (twice per week) for 3 weeks, and killed one week after drug withdrawal. At the same time, animal weight was measured and the eye condition of the animal was observed.

tumor cells = assay: In-vitro inhibition of tumor cell proliferation, hypoxic versus normal oxygen; assay type: cell-based; settings: in words, see Table 1
Method: as §1

[5] = hypoxic (5% CO2, 95% N2), read-out: Median inhibition concentration IC50 hypoxic (nitrogen)
[6] = normal oxygen (air), read-out: Median inhibition concentration IC50 normal oxygen (air)
[7] = BxPC-3, 72 h, hypoxic (5% CO2, 95% N2), read-out: Median inhibition concentration IC50 hypoxic (nitrogen)
[8] = BxPC-3, 72 h, normal oxygen (air), read-out: Median inhibition concentration IC50 normal oxygen (air)
[9] = BXPC-3, 72 h, hypoxic (5% CO2, 95% N2), read-out: Median inhibition concentration IC50 hypoxic (nitrogen)
[10] = BXPC-3, 72 h, normal oxygen (air), read-out: Median inhibition concentration IC50 normal oxygen (air)
[11] = BxPC-3, 72 h, hypoxic (5% CO2, 95% N2)
[12] = BxPC-3, 72 h, normal oxygen (air)

SMILES	IC50 [1, 5] [µg/mL]	IC50 [1, 6] [µg/mL]	IC50 [2, 5] [µg/mL]	IC50 [2, 6] [µg/mL]	IC50 [3, 9] [µg/mL]	IC50 [3, 10] [µg/mL]	further results
CC(OC(=O)[C@H](C)NP(=O)(OC[C@H]1O[C@@H](n2ccc(N)nc2=O)C(F)(F)C1O)Oc1ccccc1)c1ccc([N+](=O)[O-])cc1 (some centres unmarked) [Compound 001]	0.3 (≈ 0.469 µM)	> 10	0.05 (≈ 0.0782 µM)	1 (≈ 1.56 µM)	–	–	IC50 [3, 7]: 0.2 µg/mL (≈ 0.313 µM); IC50 [3, 8]: > 10 µg/mL; Animal weight [4]: no significant difference in animal weight; also recorded: not significantly different from that of the low-dose group and a positive control drug gemcitabine group
C[C@H](NP(=O)(OC[C@H]1O[C@@H](n2ccc(N)nc2=O)C(F)(F)C1O)Oc1ccccc1)C(=O)OC(C)(C)c1ccc([N+](=O)[O-])cc1 (some centres unmarked) [Compound 002]	0.2 (≈ 0.306 µM)	> 10	0.1 (≈ 0.153 µM)	2 (≈ 3.06 µM)	–	–	IC50 [3, 7]: 0.4 µg/mL (≈ 0.612 µM); IC50 [3, 8]: > 10 µg/mL
CC(OC(=O)[C@H](C)NP(=O)(OC[C@H]1O[C@@H](n2ccc(N)nc2=O)C(F)(F)C1O)Oc1ccccc1)c1cnc([N+](=O)[O-])n1C (some centres unmarked) [Compound 003]	0.4 (≈ 0.622 µM)	> 10	–	–	–	–	–
CC(OC(=O)[C@H](C)NP(=O)(OC[C@H]1O[C@@H](n2cnc(N)nc2=O)C(F)(F)C1O)Oc1ccccc1)c1ccc([N+](=O)[O-])o1 (some centres unmarked) [Compound 004]	–	–	–	–	–	–	IC50 [3, 7]: 0.4 µg/mL (≈ 0.634 µM); IC50 [3, 8]: > 10 µg/mL
CC(OC(=O)[C@H](C)NP(=O)(OC[C@H]1O[C@@H](n2ccc(N)nc2=O)C(F)(F)C1O)Oc1ccccc1)c1ccc([N+](=O)[O-])s1 (some centres unmarked) [Compound 005]	–	–	0.1 (≈ 0.155 µM)	2 (≈ 3.1 µM)	–	–	–
CC(OP(=O)(N[C@@H](C)C(=O)OCc1ccccc1)OC[C@H]1O[C@@H](n2ccc(N)nc2=O)C(F)(F)C1O)c1ccc([N+](=O)[O-])cc1 (some centres unmarked) [Compound 006]	–	–	0.2 (≈ 0.306 µM)	2 (≈ 3.06 µM)	0.4 (≈ 0.612 µM)	> 10	–
COC(=O)[C@H](C)NP(=O)(OC[C@H]1O[C@@H](n2cnc(N)nc2=O)C(F)(F)C1O)OC(C)c1ccc([N+](=O)[O-])cc1 (some centres unmarked) [Compound 007]	0.5 (≈ 0.864 µM)	> 10	–	–	0.4 (≈ 0.692 µM)	> 10	–
CCOC(=O)[C@H](C)NP(=O)(OC[C@H]1O[C@@H](n2cnc(N)nc2=O)C(F)(F)C1O)OC(C)c1ccc([N+](=O)[O-])cc1 (some centres unmarked) [Compound 008]	0.3 (≈ 0.506 µM)	> 10	–	–	0.4 (≈ 0.675 µM)	> 10	–
CC(C)OC(=O)[C@H](C)NP(=O)(OC[C@H]1O[C@@H](n2cnc(N)nc2=O)C(F)(F)C1O)OC(C)c1ccc([N+](=O)[O-])cc1 (some centres unmarked) [Compound 009]	–	–	0.2 (≈ 0.33 µM)	2 (≈ 3.3 µM)	0.4 (≈ 0.66 µM)	> 10	–
CCCCOC(=O)[C@H](C)NP(=O)(OC[C@H]1O[C@@H](n2cnc(N)nc2=O)C(F)(F)C1O)OC(C)c1ccc([N+](=O)[O-])cc1 (some centres unmarked) [Compound 010]	–	–	0.2 (≈ 0.322 µM)	2 (≈ 3.22 µM)	–	–	–
CC(OP(=O)(N[C@@H](C)C(=O)OCC(C)(C)C)OC[C@H]1O[C@@H](n2cnc(N)nc2=O)C(F)(F)C1O)c1ccc([N+](=O)[O-])cc1 (some centres unmarked) [Compound 011]	–	–	0.2 (≈ 0.315 µM)	2 (≈ 3.15 µM)	–	–	–
CC(OP(=O)(N[C@@H](C)C(=O)OC1CCCCC1)OC[C@H]1O[C@@H](n2cnc(N)nc2=O)C(F)(F)C1O)c1ccc([N+](=O)[O-])cc1 (some centres unmarked) [Compound 012]	0.5 (≈ 0.773 µM)	> 10	–	–	0.5 (≈ 0.773 µM)	> 10	–
C[C@H](NP(=O)(OCc1ccc([N+](=O)[O-])s1)OC[C@H]1O[C@@H](n2cnc(N)nc2=O)C(F)(F)C1O)C(=O)OC1CCCCC1 (some centres unmarked) [Compound 013]	–	–	–	–	0.8 (≈ 1.25 µM)	> 10	–
COC(=O)[C@H](C)NP(=O)(OC[C@H]1O[C@@H](n2cnc(N)nc2=O)C(F)(F)C1O)OC(C)c1ccc([N+](=O)[O-])cc1 (some centres unmarked) [Compound 014]	–	–	–	–	–	–	Median inhibition concentration IC50 hypoxic (nitrogen) [3, 11]: 0.7; Median inhibition concentration IC50 normal oxygen (air) [3, 12]: > 10
C[C@H](NP(=O)(OCc1ccc([N+](=O)[O-])o1)OC[C@H]1O[C@@H](n2ccc(N)nc2=O)C(F)(F)C1O)C(=O)OCc1ccccc1 (some centres unmarked) [Compound 015]	–	–	–	–	0.5 (≈ 0.794 µM)	> 10	–
CC(C)OC(=O)[C@H](C)NP(=O)(OCc1ccc([N+](=O)[O-])s1)OC[C@H]1O[C@@H](n2cnc(N)nc2=O)C(F)(F)C1O (some centres unmarked) [Compound 016]	–	–	–	–	0.4 (≈ 0.668 µM)	> 10	–
CCOC(=O)[C@H](C)NP(=O)(OCc1cnc([N+](=O)[O-])n1C)OC[C@H]1O[C@@H](n2cnc(N)nc2=O)C(F)(F)C1O (some centres unmarked) [Compound 017]	–	–	–	–	0.8 (≈ 1.37 µM)	> 10	–
COc1ccc(COP(=O)(N[C@@H](C)C(=O)OC(C)c2ccc([N+](=O)[O-])o2)OC[C@H]2O[C@@H](n3ccc(N)nc3=O)C(F)(F)C2O)cc1 (some centres unmarked) [Compound 018]	–	–	–	–	0.5 (≈ 0.742 µM)	> 10	–
Cc1ccccc1COP(=O)(N[C@@H](C)C(=O)OC(C)(C)c1ccc([N+](=O)[O-])s1)OC[C@H]1O[C@@H](n2ccc(N)nc2=O)C(F)(F)C1O (some centres unmarked) [Compound 019]	–	–	–	–	0.8 (≈ 1.16 µM)	> 10	–
CC(OC(=O)[C@H](C)NP(=O)(OCc1ccc(N(C)C)cc1)OC[C@H]1O[C@@H](n2ccc(N)nc2=O)C(F)(F)C1O)c1ccc([N+](=O)[O-])cc1 (some centres unmarked) [Compound 020]	–	–	–	–	0.4 (≈ 0.574 µM)	> 10	–
COc1ccccc1COP(=O)(N[C@@H](C)C(=O)OC(C)c1cnc([N+](=O)[O-])n1C)OC[C@H]1O[C@@H](n2ccc(N)nc2=O)C(F)(F)C1O (some centres unmarked) [Compound 021]	–	–	–	–	0.5 (≈ 0.727 µM)	> 10	–
CC(OC(=O)Nc1ccn([C@@H]2O[C@H](COP(=O)(N[C@@H](C)C(=O)OCc3ccccc3)Oc3ccccc3)C(O)C2(F)F)c(=O)n1)c1ccc([N+](=O)[O-])cc1 (some centres unmarked) [Compound 022]	0.3 (≈ 0.388 µM)	0.4 (≈ 0.517 µM)	0.01 (≈ 0.0129 µM)	0.01 (≈ 0.0129 µM)	–	–	IC50 ([3]; BXPC-3, 72 h, read-out: Median inhibition concentration IC50 hypoxic (nitrogen)): 0.1 µg/mL (≈ 0.129 µM); IC50 ([3]; BXPC-3, 72 h, read-out: Median inhibition concentration IC50 normal oxygen (air)): 0.1 µg/mL (≈ 0.129 µM); Cytotoxicity under a hypoxic condition compared with that under a normal oxygen condition (tumor cells): not significantly different
C[C@H](NP(=O)(OC[C@H]1O[C@@H](n2ccc(N)nc2=O)C(F)(F)C1O)Oc1ccccc1)C(=O)OCc1ccc([N+](=O)[O-])cc1 (some centres unmarked) [Compound 023]	0.3 (≈ 0.48 µM)	0.4 (≈ 0.64 µM)	0.01 (≈ 0.016 µM)	0.01 (≈ 0.016 µM)	–	–	IC50 [3, 7]: 0.1 µg/mL (≈ 0.16 µM); IC50 [3, 8]: 0.1 µg/mL (≈ 0.16 µM); Cytotoxicity under a hypoxic condition compared with that under a normal oxygen condition (tumor cells): not significantly different
C[C@H](NP(=O)(OCc1ccccc1Cl)OC[C@H]1O[C@@H](n2ccc(N)nc2=O)C(F)(F)C1O)C(=O)OC(C)(C)c1ccc([N+](=O)[O-])s1 (some centres unmarked) [Compound 024]	–	–	–	–	–	–	Median inhibition concentration IC50 hypoxic (nitrogen) [3, 11]: >10; Median inhibition concentration IC50 normal oxygen (air) [3, 12]: >10; Cytotoxicity under a hypoxic condition compared with that under a normal oxygen condition (tumor cells): differed slightly
Nc1ccn([C@@H]2O[C@H](CO)[C@@H](O)C2(F)F)c(=O)n1 [Gemcitabine]	0.2 (≈ 0.76 µM)	0.2 (≈ 0.76 µM)	0.01 (≈ 0.038 µM)	0.01 (≈ 0.038 µM)	–	–	IC50 [3, 7]: 0.2 µg/mL (≈ 0.76 µM); IC50 [3, 8]: 0.2 µg/mL (≈ 0.76 µM); Cytotoxicity under a hypoxic condition compared with that under a normal oxygen condition (tumor cells): no significant difference
C[C@H](NP(=O)(OC[C@H]1O[C@@H](n2ccc(N)nc2=O)C(F)(F)[C@@H]1O)Oc1ccccc1)C(=O)OCc1ccccc1 (some centres unmarked) [NUC-1031, reference compound]	0.2 (≈ 0.345 µM)	0.2 (≈ 0.345 µM)	0.01 (≈ 0.0172 µM)	0.01 (≈ 0.0172 µM)	–	–	IC50 [3, 7]: 0.1 µg/mL (≈ 0.172 µM); IC50 [3, 8]: 0.1 µg/mL (≈ 0.172 µM); Cytotoxicity under a hypoxic condition compared with that under a normal oxygen condition (tumor cells): no significant difference
